Laboratory results: US9416144B2, “Benzoxazine oxazolidinone compound, preparation method and application thereof” (priority 2012, dated 2016)
≈ marks a conversion by molar mass, not a printed value. Where “and” joins values, the source holds several entries; their conditions need not be identical. Equal entries are not always repeated. Where two headings read alike, the source gives them in different places.

Tests used:
[1] = system: LRSA, linezolid-resistant strain of Staphylococcus aureus (3 strains); experiment: In vitro antibacterial activity on linezolid-resistant strains, MIC in MHB broth, 96-well plate; assay type: cell-based; conditions: LRSA (3 strains)
Procedure: (§1) The stock solution of the subject drugs in DMSO was 10 mg/mL. MHA (agar) and MHB (broth) were both prepared according to the manufacturer's requirements.
(§2) Double dilution of drugs: under aseptic operation, 12.8 μL of liquid drug was added into the first well of a 96-well plate, and then added 27.2 μL DMSO and mixed. The 2nd to 12nd wells were all added 20 μL DMSO. 20 μL was taken from the first well to the second well and mixed up. 20 μL was taken from the second well to the third well, which was repeated till the 11st well, from which was taken 20 μL and discarded. The 12nd well only had 20 μL of DMSO as the growth control. Then 180 μL of sterile water was added to each well and mixed up. The drug used as control was prepared by the same method.
(§3) The solutions with different concentrations of antibacterial drugs after the double dilution and DMSO were added into a sterile 96-well plate separately, 10 μL per well, ready for use.
(§4) Single colonies were picked from the MHA plates into 5 ml of sterile saline and mixed up.
(§5) Light transmittance was adjusted to 80% with a spectrophotometer. After being diluted by 1:200 with MHB, 90 μL of such bacteria liquid was added into each of the wells which already had 10 μL of the drug liquid, mixed up, and incubated in a regular biochemical incubator at 35° C. for 20 hrs before the results were read out. At this time, the drug concentration in the 1st to 12nd wells was 32, 16, 8, 4, 2, 1, 0.5, 0.25, 0.125, 0.0625, 0.03125, 0 μg/mL, respectively.
(§6) Two parallel groups were set up for the same diluted concentration of a drug.
(§7) 4) Results Reading and Judgment: Refer to the Standard Recommended by the CLSI, 2010 Edition.
(§8) The positive control group was LZ (linezolid, brand name Zyvox, approved by the FDA in 2000 to be firstly sold in the United States, which is the first and also the only one of oxazolidinone antibacterial drugs allowed to enter clinical application).

[2] = system: LREFL, linezolid-resistant strain of Enterococcus faecalis (3 strains); experiment: as above; assay type: cell-based; conditions: LREFL (3 strains)
Procedure: as §1, §2, §3, §4, §5, §6, §7, §8

[3] = system: LRSE, linezolid-resistant strain of Staphylococcus epidermidis (1 strain); experiment: as above; assay type: cell-based; conditions: LRSE (1 strain)
Procedure: as §1, §2, §3, §4, §5, §6, §7, §8

[4] = system: S.a. ATCC 29213 (standard strain of Staphylococcus aureus); experiment: as above; assay type: cell-based; conditions: ATCC29213, 35° C. 20 hrs
Procedure: as §1, §2, §3, §4, §5, §6, §7, §8

[5] = system: LREFA, linezolid-resistant strain of Enterococcus faecium (3 strains); experiment: as above; assay type: cell-based; conditions: LREFA (3 strains)
Procedure: as §1, §2, §3, §4, §5, §6, §7, §8

[6] = system: Staphylococcus epidermidis sensitive strains (5 strains); experiment: In vitro antibacterial activity, MIC by agar double dilution method; assay type: cell-based; conditions: clinical isolates
Description: (§9) Experimental method: The agar double dilution method (Antimicrob. Agents and Chemother, 40, 1996, 720-726) was used to determine the minimum inhibitory concentration (MIC) of the series of compounds of the invention and the positive control drug linezolid for the test strains. The multipoint inoculation system (Denley A400) was employed to inoculate the bacteria on the agar plate surface with different concentrations of drugs; inoculation amount on each point was about 10^6 CFU/mL. The plates were incubated at 35° C. for 16 hrs before the results were observed. The lowest drug concentration contained in the Petri dish without bacterial growth was used as the minimum inhibitory concentration (MIC value) of the drug fir that strain.
(§10) Test strains: All the test strains were clinically isolated pathogens which were collected from the Nanjing region, and they were re-identified by routine methods before use. 31 strains of the clinically isolated pathogens were chosen, including 6 strains of Enterococcus, 5 Staphylococcus aureus sensitive strains; 5 Staphylococcus epidermidis sensitive strains; 6 Staphylococcus aureus resistant strains; 5 Staphylococcus epidermidis resistant strains; and 4 Streptococcus pneumoniae resistant strains.
(§11) Compounds to be tested were first added 2 ml of DMSO to help them fully dissolved, then added sterile double distilled water to the desired concentration; to all the Petri dish with added drug liquid were added 20 mL MIT medium which was heat-melted to be liquid-like, to make the final drug concentration in the Petri dish to be 64, 32, 16, 8, 4, 2, 1, 0.5, 0.25, 0.125, 0.0625, and 0.031 μg/mL.
as §8

[7] = system: Enterococcus (6 strains); experiment: as above; assay type: cell-based; conditions: clinical isolates, 35° C. 16 hrs
Description: as §9, §10, §11, §8

[8] = system: Staphylococcus aureus sensitive strains (5 strains); experiment: as above; assay type: cell-based; conditions: clinical isolates
Description: as §9, §10, §11, §8

[9] = system: Staphylococcus aureus resistant strains (6 strains); experiment: as above; assay type: cell-based; conditions: clinical isolates
Description: as §9, §10, §11, §8

[10] = system: Streptococcus pneumoniae resistant strains (4 strains); experiment: as above; assay type: cell-based; conditions: clinical isolates
Description: as §9, §10, §11, §8

[11] = system: Staphylococcus epidermidis resistant strains (5 strains); experiment: as above; assay type: cell-based; conditions: clinical isolates
Description: as §9, §10, §11, §8

[12] = In vivo pharmacokinetic assays in rats (intragastric and intravenous), plasma Compound 14 by LC-MS/MS; set-up: species or system SD rats
Procedure: Two routes of administration (intragastric administration and intravenous injection) were employed.
(§12) Intragastric administration: Four healthy SD rats, male, weight 200-250 g, were dosed 15 mg/kg; the delivery volume was 10 ml/kg, prepared with 0.5% CMC-Na. The rats were fasted for 12 hrs before administration, free water-drinking. 0.3 ml of venous blood was taken from the posterior venous plexus of rats to heparinized tubes at 0.25, 0.5, 1.0, 2.0, 3.0, 4.0, 5.0, 7.0, 9.0, 24, and 48 hrs after administration, centrifuged at 3500 rpm for 10 mins to separate the plasma, which was then stored at −20° C. for test.
as §12, with “Intravenous injection: Two” for “Intragastric administration: Four”, “200˜250” for “200-250”, “5” for “15”, “DMSO, Tween 80 and deionized water.” for “0.5% CMC-Na.”, “5 min, 15 min, and” for “0.25,”
The concentration of Compound 14 in plasma was determined by liquid chromatography tandem mass spectrometry.
In accordance with the above experimental methods, the inventor has determined the in vivo pharmacokinetic properties of phosphate (ester) disodium salt 37 of Compound 14 in rats.

[13] = as above; set-up: species or system SD rats; conditions: for CLz: parameters of 14 in rats after 10 mg/kg Compound 37 intravenous injection
[14] = system: methicillin-resistant Staphylococcus aureus ATCC 33591 (MRSA); experiment: In vivo antibacterial activity, mice with systemic infection by MRSA, survival at 48 hours; conditions: female ICR mice, systemic infection (2.35 × 10^7 CFU/mice, intraperitoneal), oral administration 1 hour after infection
Procedure: Test strains: the strain used to infect animals was methicillin-resistant Staphylococcus aureus ATCC 33591 (MRSA).
Experimental animals: female ICR mice, age: 4 to 5 weeks, weight 20 to 22 grams, available from Shanghai Sippr BK Experimental Animal Co., Ltd., qualification certificate No.: 2008001625863.
Experimental method: Mice were randomly divided into groups. There were 4 dosage groups for each subject drug each administration manner: 2.5, 5, 10 and 20 mg/kg, 6 mice for each dosage group. Furthermore, a gastric mucin vehicle group was used as negative control for each administration manner. Mice were intraperitoneally injected with 10^7-10^8 CFU/mL of the bacterial suspension, 0.5 ml/mouse, and at 1 hour after infection the mice were orally administered the corresponding drugs for treatment, dosing volume 0.2 mL/20 g. This research program complied with the provisions and relevant regulations of National Laboratory Animal Management and Welfare.

| MIC [1] | MIC [2] | MIC [3] | MIC [4] | MIC [5] | melting point | SMILES | MIC [6] | MIC [7] | MIC [8] | MIC [9] | MIC [10] | MIC [11] | plasma exposure of 14 of the group receiving 37 relative to the group receiving 14 ([12]; intragastric administration, upon measurement normalization) | plasma exposure of intravenous injection relative to that of Compound 14 ([12]; intravenous injection, prodrug 37 vs Compound 14) | oral plasma exposure relative to that of Compound 14 ([12]; oral, prodrug 37 vs Compound 14) | CLz ([13]; average value) | CLz ([13]; individual animals No. 5-7) | plasma exposure of compound 14 of the group receiving 37 relative to the group receiving 14 ([13]; rats, intravenous injection, upon measurement normalization) | ED50 [14] | ED50 ([14]; Staphylococcus aureus, read-out: ED50) |
| --- | --- | --- | --- | --- | --- | --- | --- | --- | --- | --- | --- | --- | --- | --- | --- | --- | --- | --- | --- | --- |
| 4 µg/mL (≈ 10.7 µM) | 2 to 4 µg/mL (≈ 5.37 to 10.7 µM) | 4 µg/mL (≈ 10.7 µM) | 0.5 µg/mL (≈ 1.34 µM) | 2 to 4 µg/mL (≈ 5.37 to 10.7 µM) |  | C[C@@H](O)C(O)c1ccc(-c2ccc3c(c2)OC[C@H]2[C@H](CO)OC(=O)N32)cn1 (stereo partly drawn) [Compound 18, (3R,3aS)-7-(6-((2R)-1,2-dihydroxylpropyl)pyridin-3-yl)-3-(hydroxylmethyl)-3a,4-dihydrobenzo[b]oxazolo[3,4-d][1,4]oxazin-1(3H)-one] | 1 to 2 µg/mL (≈ 2.69 to 5.37 µM) | 4 to 8 µg/mL (≈ 10.7 to 21.5 µM) | 2 to 4 µg/mL (≈ 5.37 to 10.7 µM) | 2 µg/mL (≈ 5.37 µM) | 2 to 4 µg/mL (≈ 5.37 to 10.7 µM) | 1 to 2 µg/mL (≈ 2.69 to 5.37 µM) |  |  |  |  |  |  |  |  |
| 8 µg/mL (≈ 18.9 µM) | 4 µg/mL (≈ 9.45 µM) | 4 µg/mL (≈ 9.45 µM) | 0.5 µg/mL (≈ 1.18 µM) | 4 µg/mL (≈ 9.45 µM) | 313 to 315 °C | N#Cc1ccc(-c2ccc3c(c2)OC[C@H]2[C@H](COC(=O)CCC(=O)O)OC(=O)N32)cn1 [Compound 34, 4-(((3R,3aS)-7-(6-cyanopyridin-3-yl)-1-oxo-1,3,3a,4-tetrahydrobenzo[b]oxazolo[3,4-d][1,4]oxazin-3-yl)methoxyl)-4-oxobutyric acid] |  |  |  |  |  |  |  |  |  |  |  |  |  |  |
|  |  |  |  |  |  | CN1CC(c2ccc(-c3ccc4c(c3)OC[C@H]3[C@H](COP(=O)([O-])[O-])OC(=O)N43)cn2)OC1=O.[Na+].[Na+] (stereo partly drawn) [Compound 37] |  |  |  |  |  |  | 157% | 1.34 times | 1.5 times | 40.3 mL/min/kg | 41.3 mL/min/kg and 35.7 mL/min/kg and 44 mL/min/kg | 134% | 5.00 mg/kg |  |

| SMILES | MIC [1] | MIC [2] | MIC [3] | MIC [4] | MIC [5] | melting point | MIC [6] | MIC [7] | MIC [8] | MIC [9] | MIC [10] | MIC [11] | plasma exposure of 14 of the group receiving 37 relative to the group receiving 14 ([12]; intragastric administration, upon measurement normalization) | plasma exposure of intravenous injection relative to that of Compound 14 ([12]; intravenous injection, prodrug 37 vs Compound 14) | oral plasma exposure relative to that of Compound 14 ([12]; oral, prodrug 37 vs Compound 14) | CLz ([13]; average value) | CLz ([13]; individual animals No. 5-7) | plasma exposure of compound 14 of the group receiving 37 relative to the group receiving 14 ([13]; rats, intravenous injection, upon measurement normalization) | ED50 [14] | ED50 ([14]; Staphylococcus aureus, read-out: ED50) |
| --- | --- | --- | --- | --- | --- | --- | --- | --- | --- | --- | --- | --- | --- | --- | --- | --- | --- | --- | --- | --- |
| CC(=O)NC[C@H]1CN(c2ccc(N3CCOCC3)c(F)c2)C(=O)O1 [LZ, linezolid, reference compound] | > 32 µg/mL | 8 to 16 µg/mL (≈ 23.7 to 47.4 µM) | 16 µg/mL (≈ 47.4 µM) | 1 µg/mL (≈ 2.96 µM) | 8 to 16 µg/mL (≈ 23.7 to 47.4 µM) |  | 1 µg/mL (≈ 2.96 µM) | 1 to 2 µg/mL (≈ 2.96 to 5.93 µM) | 1 to 2 µg/mL (≈ 2.96 to 5.93 µM) | 1 to 2 µg/mL (≈ 2.96 to 5.93 µM) | 2 µg/mL (≈ 5.93 µM) | 1 to 2 µg/mL (≈ 2.96 to 5.93 µM) |  |  |  |  |  |  |  | 9.87 mg/kg |
